# Test results reported in patent publication US20240393292A1, “ALLERGY ANTIGEN AND EPITOPE THEREOF” (HOYU CO., LTD., priority 2019, published 2024).
# System: IgE antibody present in the serum of a wheat-allergic patient
# Experiment: Wheat epitope mapping (1): peptide array of overlapping 15-amino-acid peptides, chemiluminescence
# Assay type: binding, human
# Settings: bound = chemiluminescence value minus N2nd value of 5 non-wheat-allergic subjects at least 35,000; serum of 49 patients
# Method: Epitope mapping was carried out using a library of overlapping peptides (length: 15 amino acids) corresponding to the amino acid sequences identified as allergy components of wheat. Specifically, the library of overlapping peptides was prepared on the basis of the amino acid sequences of SEQ ID NOs: 2, 4, 6, 8, 10, 12, 14, 16, 18, 20, 22, 24, 26 and 28.
# The peptides to be synthesized were shifted by 10 amino acids.
# For preparation of peptide arrays, the Intavis CelluSpots™ technique was used. Specifically, the peptide arrays were prepared by the following procedure: (1) synthesizing peptides of interest on amino-modified cellulose disks using an automated chemical synthesis apparatus (Intavis MultiPep RS), (2) dissolving the amino-modified cellulose disks to obtain a cellulose-bound peptide solution, and (3) spotting the cellulose-bound peptides onto coated glass slides. The details of each procedure are as described below.
# Peptide synthesis was carried out in incremental steps through 9-fluorenylmethoxycarbonyl (Fmoc) chemical reaction on amino-modified cellulose disks in 384-well synthesis plates. Specifically, amino acids in which a Fmoc group is bonded to an amino group were activated in a solution of N,N′-diisopropylcarbodiimide (DIC) and 1-hydroxybenzotriazole (HOBt) in dimethylformamide (DMF) and added dropwise to the cellulose disks so that the Fmoc group-bound amino acids were bound to the amino groups on the cellulose disks (coupling). Unreacted amino groups were capped with acetic anhydride and washed with DMF. Furthermore, the Fmoc groups were eliminated from the amino groups of the amino acids bound to the amino groups on the cellulose disks by treatment with piperidine and washing with DMF. The amino acids bound to the amino groups on the cellulose disks were repetitively subjected to the coupling, the capping, and the Fmoc group elimination described above to elongate the amino terminus for peptide synthesis.
# The peptides-bound cellulose disks of interest obtained above in the subsection titled “(1) Synthesis of peptide” were transferred to 96-well plates and treated with a side chain deprotection mixed solution of trifluoroacetic acid (TFA), dichloromethane, triisopropylsilane (TIPS), and water for deprotection of amino acid side chains. Then, the deprotected cellulose-bound peptides were dissolved in a mixed solution of TFA, […] acid (TFMSA), TIPS, and water and precipitated in […] methyl ether (TBME), and the precipitate was resuspended in dimethyl sulfoxide (DMSO) and mixed with a mixed solution of NaCl, sodium citrate, and water to obtain a peptide solution for slide spotting.
# The peptide solution for slide spotting obtained above in the subsection titled “(2) Dissolution of amino-modified cellulose disk” was spotted onto Intavis CelluSpots™ slides using Intavis Slide Spotting Robot, and the slides were dried to prepare peptide arrays.
# The presence or absence of binding, to each peptide fragment, of an IgE antibody present in the serum of a wheat-allergic patient was measured through antigen-antibody reaction using the peptide arrays. […]
row,Substance,binding of patient-specific IgE antibodies to 15-residue peptide
1,SEQ ID NO: 29: common 15-residue epitope sequence of polypeptide (E1) (QQILWYHQQQPIQQQ; REGION 1..15: note = epitope),confirmed to bind
2,SEQ ID NO: 131: common 15-residue epitope sequence of polypeptide (E2) (PPFPQQHQQFPQQQI; REGION 1..15: note = epitope),confirmed to bind
3,SEQ ID NO: 191: common 15-residue epitope sequence of polypeptide (E3) (SQQQQPFPQQQQPLL; REGION 1..15: note = epitope),confirmed to bind
4,SEQ ID NO: 281: common 15-residue epitope sequence of polypeptide (E4) (QQPQQPFPQQQQPLI; REGION 1..15: note = epitope),confirmed to bind
5,SEQ ID NO: 346: common 15-residue epitope sequence of polypeptide (E5) (PQQSFPQQQRPFIQP; REGION 1..15: note = epitope),confirmed to bind
6,SEQ ID NO: 414: common 15-residue epitope sequence of polypeptide (E6) (KWRAVLKIGATEPSQ; REGION 1..15: note = epitope),confirmed to bind
7,SEQ ID NO: 493: common 15-residue epitope sequence of polypeptide (E7) (PQQPYPQQQPQYLQP; REGION 1..15: note = epitope),confirmed to bind
8,SEQ ID NO: 562: common 15-residue epitope sequence of polypeptide (E8) (KPSQQQPLPLQQILW; REGION 1..15: note = epitope),confirmed to bind
9,SEQ ID NO: 640: common 15-residue epitope sequence of polypeptide (E9) (QVPLVQQQQFPGQQQ; REGION 1..15: note = epitope),confirmed to bind
10,SEQ ID NO: 706: common 15-residue epitope sequence of polypeptide (E10) (VILFEETLYQSTKGG; REGION 1..15: note = epitope),confirmed to bind
11,SEQ ID NO: 776: common 15-residue epitope sequence of polypeptide (E11) (QPYPQPQPFPSQQPY; REGION 1..15: note = epitope),confirmed to bind
12,SEQ ID NO: 899: common 15-residue epitope sequence of polypeptide (E12) (LGQQQQQFPGQQQPF; REGION 1..15: note = epitope),confirmed to bind
13,SEQ ID NO: 974: common 15-residue epitope sequence of polypeptide (E13) (QPFPQQQQPIIILQQ; REGION 1..15: note = epitope),confirmed to bind
14,SEQ ID NO: 1010: common 15-residue epitope sequence of polypeptide (E14) (WLQQQLVPQLQQPLS; REGION 1..15: note = epitope),confirmed to bind
15,SEQ ID NO: 1089: common 15-residue epitope sequence of polypeptide (E15) (STKGGKPFVDILKAG; REGION 1..15: note = epitope),confirmed to bind
16,SEQ ID NO: 1142: common 15-residue epitope sequence of polypeptide (E16) (TEPSQLSIDQNAQGL; REGION 1..15: note = epitope),confirmed to bind
17,SEQ ID NO: 1166: common 15-residue epitope sequence of polypeptide (E17) (PGQQQQFPPQQPYPQ; REGION 1..15: note = epitope),confirmed to bind
18,SEQ ID NO: 1209: common 15-residue epitope sequence of polypeptide (E18) (PIQQQPQPFPQQPPC; REGION 1..15: note = epitope),confirmed to bind
19,SEQ ID NO: 1257: common 15-residue epitope sequence of polypeptide (E19) (SSLVSMILPRSDCKV; REGION 1..15: note = epitope),confirmed to bind
20,SEQ ID NO: 1297: common 15-residue epitope sequence of polypeptide (E20) (SINVENVEDNRRALR; REGION 1..15: note = epitope),confirmed to bind
21,SEQ ID NO: 1367: common 15-residue epitope sequence of polypeptide (E21) (KPWQQQPLPPQQQPP; REGION 1..15: note = epitope),confirmed to bind
22,SEQ ID NO: 1403: common 15-residue epitope sequence of polypeptide (E22) (QYLQPQQPISQQQAQ; REGION 1..15: note = epitope),confirmed to bind

# System: IgE antibodies from patients
# Experiment: Wheat epitope mapping (2): overlapping 10-amino-acid peptide fragments shifted by one amino acid
# Assay type: binding, human
# Settings: serum of patient P28 (WDEIA); partial sequence
# How it was run: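 Residual binding was banded as <30% none, 30–<50% poor, 50–<70% somewhat poor and ≥70% retained, relative to the parent overlapping sequence set to 100%. Values were chemiluminescent IgE signals from patient sera after subtracting secondary-antibody-only controls. The peptides were spot-synthesised 10-mers shifted by one amino acid.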
row,Substance,"Epitope sequence binding to IgE antibody, rank of the sequence"
1,2731 (YKIGGI; REGION 1..6: note = epitope) [compound 2731],Key

# Same assay, conditions: serum of patient P29 (WDEIA); partial sequence
row,Substance,"Epitope sequence binding to IgE antibody, rank of the sequence"
1,2733 (YKIGGI; REGION 1..6: note = epitope) [compound 2733],Preferably
2,2734 (YKIGG; REGION 1..5: note = epitope) [compound 2734],Key
3,2735 (GIGTVPVGRV; REGION 1..10: note = epitope) [compound 2735],Key

# Same assay, conditions: serum of patient P30 (WDEIA); partial sequence
row,Substance,"Epitope sequence binding to IgE antibody, rank of the sequence"
1,2736 (YKIGGIGTVP; REGION 1..10: note = epitope) [compound 2736],Preferably
2,2737 (KIGG; REGION 1..4: note = epitope) [compound 2737],Key
3,2738 (VPVGR; REGION 1..5: note = epitope) [compound 2738],Key

# Same assay, conditions: serum of patient P31 (WDEIA); partial sequence
row,Substance,"Epitope sequence binding to IgE antibody, rank of the sequence"
1,2739 (YKIGGIG; REGION 1..7: note = epitope) [compound 2739],Preferably
2,2740 (KIGGI; REGION 1..5: note = epitope) [compound 2740],Key
3,2741 (GIGTVPVGRV; REGION 1..10: note = epitope) [compound 2741],Key

# Same assay, conditions: serum of patient P33 (WDEIA); partial sequence
row,Substance,"Epitope sequence binding to IgE antibody, rank of the sequence"
1,2742 (YKIGGIGTVP; REGION 1..10: note = epitope) [compound 2742],Preferably
2,2743 (YKIGGIGTV; REGION 1..9: note = epitope) [compound 2743],Key

# Same assay, conditions: serum of patient P34 (WDEIA); partial sequence
row,Substance,"Epitope sequence binding to IgE antibody, rank of the sequence"
1,2745 (KIGGIG; REGION 1..6: note = epitope) [compound 2745],Preferably
2,2746 (KIGGI; REGION 1..5: note = epitope) [compound 2746],Key
